This passage reports IC50 results from US8022206B2 (OSI Pharmaceuticals, LLC, priority 2008, dated 2011).

For experiment [1], the target named is RON (human) (Homo sapiens, UniProt Q04912). Nature of the experiment: RON (human) AlphaScreen kinase assay, Km of ATP. As to conditions: AlphaScreen, Km of ATP; read-out: RON biochemical IC50. The class given is biochemical. A digest of the protocol:
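Detection used PT66 AlphaScreen beads added in Tris pH 7.5/NaCl/EDTA/BSA buffer, read after 1 h incubation. Vehicle-only DMSO wells served as controls.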
On the technique in general: In Alpha technology, singlet oxygen from a donor bead excites a nearby acceptor bead.

Experiment [2] has as its target MET (human) (Homo sapiens, UniProt P08581). Nature of the experiment: MET (human) AlphaScreen kinase assay, Km of ATP. The class given is biochemical. As to conditions: AlphaScreen, Km of ATP; read-out: Met biochemical IC50. A digest of the protocol: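 Human MET at lot-optimised concentration in 50 mM Tris pH 7.4 buffer with 1 mM DTT, compound at 1% DMSO final; enzyme starts the reaction, 60 min at RT.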

Chain of MET (human) (P08581 25-1390): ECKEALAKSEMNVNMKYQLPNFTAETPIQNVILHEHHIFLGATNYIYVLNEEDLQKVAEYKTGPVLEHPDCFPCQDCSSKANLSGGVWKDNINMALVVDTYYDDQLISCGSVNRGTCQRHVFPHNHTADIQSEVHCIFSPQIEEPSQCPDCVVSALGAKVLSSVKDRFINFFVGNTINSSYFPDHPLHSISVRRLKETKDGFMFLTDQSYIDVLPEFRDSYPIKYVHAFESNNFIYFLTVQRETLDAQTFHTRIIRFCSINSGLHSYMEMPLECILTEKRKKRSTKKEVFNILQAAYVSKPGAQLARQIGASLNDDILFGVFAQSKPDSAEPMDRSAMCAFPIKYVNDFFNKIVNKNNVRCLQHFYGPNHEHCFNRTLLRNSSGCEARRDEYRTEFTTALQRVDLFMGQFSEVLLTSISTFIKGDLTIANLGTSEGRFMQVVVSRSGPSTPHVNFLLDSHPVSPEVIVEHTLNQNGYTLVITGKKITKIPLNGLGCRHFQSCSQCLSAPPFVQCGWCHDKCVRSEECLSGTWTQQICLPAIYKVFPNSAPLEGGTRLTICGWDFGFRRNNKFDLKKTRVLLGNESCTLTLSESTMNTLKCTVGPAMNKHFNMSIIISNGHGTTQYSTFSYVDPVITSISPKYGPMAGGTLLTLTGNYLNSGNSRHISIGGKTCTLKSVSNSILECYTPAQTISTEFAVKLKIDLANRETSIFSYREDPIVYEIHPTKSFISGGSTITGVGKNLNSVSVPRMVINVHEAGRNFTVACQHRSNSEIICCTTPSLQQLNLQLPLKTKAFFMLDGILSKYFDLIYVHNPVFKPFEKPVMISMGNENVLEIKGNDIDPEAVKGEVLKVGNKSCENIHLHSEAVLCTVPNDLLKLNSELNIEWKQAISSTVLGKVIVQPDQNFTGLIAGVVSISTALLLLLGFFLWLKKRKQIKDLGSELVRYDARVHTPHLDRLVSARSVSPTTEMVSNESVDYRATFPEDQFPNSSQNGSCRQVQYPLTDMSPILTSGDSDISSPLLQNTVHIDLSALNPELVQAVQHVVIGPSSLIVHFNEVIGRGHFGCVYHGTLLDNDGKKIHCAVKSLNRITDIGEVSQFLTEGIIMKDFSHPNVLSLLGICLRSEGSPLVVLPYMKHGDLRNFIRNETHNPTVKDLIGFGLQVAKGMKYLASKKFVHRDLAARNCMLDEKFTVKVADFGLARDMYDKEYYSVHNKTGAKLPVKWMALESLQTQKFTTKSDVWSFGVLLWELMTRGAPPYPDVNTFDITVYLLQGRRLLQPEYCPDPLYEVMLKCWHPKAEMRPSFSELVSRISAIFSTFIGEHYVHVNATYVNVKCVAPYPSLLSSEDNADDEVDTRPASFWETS
Chain of RON (human) (Q04912 25-1400): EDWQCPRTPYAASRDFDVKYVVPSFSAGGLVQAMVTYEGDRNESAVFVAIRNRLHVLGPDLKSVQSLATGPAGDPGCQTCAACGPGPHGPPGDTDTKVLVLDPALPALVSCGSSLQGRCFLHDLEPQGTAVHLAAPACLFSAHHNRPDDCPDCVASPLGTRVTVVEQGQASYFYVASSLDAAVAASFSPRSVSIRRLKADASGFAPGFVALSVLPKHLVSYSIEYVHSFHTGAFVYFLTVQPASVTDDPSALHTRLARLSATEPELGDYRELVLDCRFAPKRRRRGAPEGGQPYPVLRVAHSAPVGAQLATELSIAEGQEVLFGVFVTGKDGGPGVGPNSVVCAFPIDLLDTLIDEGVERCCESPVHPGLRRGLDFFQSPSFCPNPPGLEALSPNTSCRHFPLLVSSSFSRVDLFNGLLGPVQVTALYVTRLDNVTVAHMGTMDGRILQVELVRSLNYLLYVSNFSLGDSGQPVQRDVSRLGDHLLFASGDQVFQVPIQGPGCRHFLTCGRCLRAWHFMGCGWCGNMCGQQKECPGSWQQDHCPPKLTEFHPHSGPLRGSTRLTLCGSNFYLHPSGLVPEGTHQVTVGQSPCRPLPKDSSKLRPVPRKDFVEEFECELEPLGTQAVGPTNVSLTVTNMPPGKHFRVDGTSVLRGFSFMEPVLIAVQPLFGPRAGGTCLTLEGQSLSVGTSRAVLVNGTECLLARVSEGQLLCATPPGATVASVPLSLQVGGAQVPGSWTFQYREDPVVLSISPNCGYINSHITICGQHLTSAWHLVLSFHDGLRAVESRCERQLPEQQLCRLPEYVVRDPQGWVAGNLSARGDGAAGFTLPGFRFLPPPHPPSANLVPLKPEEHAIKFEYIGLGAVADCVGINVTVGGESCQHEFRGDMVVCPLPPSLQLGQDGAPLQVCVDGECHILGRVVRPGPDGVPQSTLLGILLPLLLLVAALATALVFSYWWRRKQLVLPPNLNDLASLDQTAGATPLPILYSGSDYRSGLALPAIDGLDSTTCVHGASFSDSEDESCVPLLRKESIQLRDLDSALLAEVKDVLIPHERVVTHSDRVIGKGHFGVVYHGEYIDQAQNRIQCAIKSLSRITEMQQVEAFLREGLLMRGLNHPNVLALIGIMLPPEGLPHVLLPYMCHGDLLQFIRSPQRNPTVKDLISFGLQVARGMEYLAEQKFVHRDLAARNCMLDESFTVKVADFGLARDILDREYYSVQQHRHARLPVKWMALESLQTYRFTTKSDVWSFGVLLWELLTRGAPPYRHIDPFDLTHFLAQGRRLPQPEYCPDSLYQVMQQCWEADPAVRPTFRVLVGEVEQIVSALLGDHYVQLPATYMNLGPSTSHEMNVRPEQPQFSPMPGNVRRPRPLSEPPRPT

As to `C[C@@H](Oc1c(N)ncc2c(-c3cccc(CN)c3)coc12)c1c(Cl)ccc(F)c1Cl` [Example 90, 3-(3-Aminomethylphenyl)-7-[(R)-1-(2,6-dichloro-3-fluorophenyl)-ethoxy]furo[3,2-c]pyridin-6-ylamine], the IC50 (in general, the concentration needed to halve the response being measured) is 500 to 5000 nM in experiment [1] and under 500 nM in experiment [2].

For `Nc1ncc2c(-c3cnn(C4CCNCC4)c3)coc2c1OC(CCc1ccccc1)c1c(Cl)ccc(F)c1Cl` (centres unmarked) [Example 368, 7-[1-(2,6-Dichloro-3-fluorophenyl)-3-phenylpropoxy]-3-(1-piperidin-4-yl-1H-pyrazol-4-yl)furo[3,2-c]pyridin-6-ylamine], the IC50 in experiment [1] and in experiment [2] was 500 to 5000 nM in each case.

For the molecule `Nc1ncc2c(-c3cnn(C4CCNCC4)c3)coc2c1OCCc1ccccc1` [Example 416, 7-Phenethyloxy-3-(1-piperidin-4-yl-1H-pyrazol-4-yl)furo[3,2-c]pyridin-6-ylamine], the IC50 in experiment [1] and in experiment [2] was 500 to 5000 nM each time.

As to `CCN1CC2CC1CN2C(=O)N1CC=C(c2coc3c(O[C@H](C)c4c(Cl)ccc(F)c4Cl)c(N)ncc23)CC1` (stereo partly drawn) [Example 222, (4-{6-Amino-7-[(R)-1-(2,6-dichloro-3-fluorophenyl)ethoxy]-furo[3,2-c]pyridin-3-yl}-3,6-dihydro-2H-pyridin-1-yl)-(5-ethyl-2,5-diazabicyclo[2.2.1]hept-2-yl)-methanone], the IC50 in experiment [1] and in experiment [2] was under 500 nM throughout.

As to `C#CCC(Oc1c(N)ncc2c(-c3cnn(C4CCNCC4)c3)coc12)c1c(Cl)cccc1Cl` (centres unmarked) [Example 341, 7-[1-(2,6-Dichlorophenyl)but-3-ynyloxy]-3-(1-piperidin-4-yl-1H-pyrazol-4-yl)-furo[3,2-c]pyridin-6-ylamine], the IC50 in experiment [1] and in experiment [2] was under 500 nM each time.

Regarding `C[C@@H](Oc1c(N)ncc2c(-c3cccc(NS(=O)(=O)c4ccccc4)c3)coc12)c1c(Cl)ccc(F)c1Cl` [Example 243, N-(3-{6-Amino-7-[(R)-1-(2,6-dichloro-3-fluorophenyl)ethoxy]-furo[3,2-c]pyridin-3-yl}phenyl)benzenesulfonamide], the IC50 in experiment [1] is 5000 to 20000 nM; in experiment [2], 500 to 5000 nM.

On to `CC(Oc1c(N)ncc2c(-c3cnn(C4CCNCC4)c3)coc12)c1ccc(Cl)cc1` (centres unmarked) [Example 377, 7-[1-(4-Chlorophenyl)ethoxy]-3-(1-piperidin-4-yl-1H-pyrazol-4-yl)furo[3,2-c]pyridin-6-ylamine], for which the IC50 in experiment [1] and in experiment [2] was 500 to 5000 nM each time.

For the molecule `CC(=O)N1CCN(c2ccc(-c3coc4c(O[C@H](C)c5c(Cl)ccc(F)c5Cl)c(N)ncc34)cn2)CC1` [Example 281, 1-[4-(5-{6-Amino-7-[(R)-1-(2,6-dichloro-3-fluorophenyl)ethoxy]furo[3,2-c]pyridin-3-yl}-pyridin-2-yl)-piperazin-1-yl]ethanone], the IC50 in experiment [1] was 500 to 5000 nM; in experiment [2], under 500 nM.

As to `CC(Oc1c(N)ncc2c(-c3cnn(C4CCNCC4)c3)coc12)c1cc(F)cc(F)c1` (centres unmarked) [Example 384, 7-[1-(3,5-Difluorophenyl)ethoxy]-3-(1-piperidin-4-yl-1H-pyrazol-4-yl)furo[3,2-c]pyridin-6-ylamine], the IC50 in experiment [1] and in experiment [2] was 500 to 5000 nM each time.

Take `C[C@@H](Oc1c(N)ncc2c(C3=CCN(C(=O)C4CCNCC4)CC3)coc12)c1c(Cl)ccc(F)c1Cl` [Example 21, (4-{6-Amino-7-[(R)-1-(2,6-dichloro-3-fluorophenyl)-ethoxy]-furo[3,2-c]pyridin-3-yl}-3,6-dihydro-2H-pyridin-1-yl)-piperidin-4-ylmethanone]: the IC50 in experiment [1] and in experiment [2] was under 500 nM in each case.

Consider `C[C@@H](Oc1c(N)ncc2c(-c3ccc(CN(C)C)s3)coc12)c1c(Cl)ccc(F)c1Cl` [Example 214, 7-[(R)-1-(2,6-Dichloro-3-fluorophenyl)ethoxy]-3-(5-dimethyl-aminomethylthiophen-2-yl)-furo[3,2-c]pyridin-6-ylamine], for which the IC50 in experiment [1] and in experiment [2] was under 500 nM throughout.

Take `C[C@@H](Oc1c(N)ncc2c(-c3ccc([N+](=O)[O-])nc3)coc12)c1c(Cl)ccc(F)c1Cl` [Example 119, 7-[(R)-1-(2,6-Dichloro-3-fluorophenyl)ethoxy]-3-(6-nitropyridin-3-yl)furo[3,2-c]pyridin-6-ylamine]: the IC50 in experiment [1] lay within 5000 to 20000 nM; in experiment [2], 500 to 5000 nM.

`C[C@@H]1CN(C(=O)c2ccc(-c3coc4c(O[C@H](C)c5c(Cl)ccc(F)c5Cl)c(N)ncc34)cc2)C[C@H](C)N1` (relative stereo) [Example 294, (4-{6-Amino-7-[(R)-1-(2,6-dichloro-3-fluorophenyl)ethoxy]furo[3,2-c]pyridin-3-yl}phenyl)-((3S*,5R*)-3,5-dimethylpiperazin-1-yl)methanone]: the IC50 in experiment [1] and in experiment [2] was under 500 nM in each case.

As for `CC(Oc1c(N)ncc2c(-c3cnn(C4CCNCC4)c3)coc12)c1c(Cl)cccc1C(F)(F)F` (centres unmarked) [Example 365, 7-[1-(2-Chloro-6-trifluoromethylphenyl)ethoxy]-3-(1-piperidin-4-yl-1H-pyrazol-4-yl)furo[3,2-c]pyridin-6-ylamine], the results for the IC50 in experiment [1] and in experiment [2] were 500 to 5000 nM and under 500 nM, respectively.

Take `CC(Oc1c(N)ncc2c(-c3cnn(C4CCNCC4)c3)coc12)c1cccc(C#N)c1` (centres unmarked) [Example 393, 3-{1-[6-Amino-3-(1-piperidin-4-yl-1H-pyrazol-4-yl)furo[3,2-c]pyridin-7-yloxy]ethyl}benzonitrile]: the IC50 was 500 to 5000 nM in experiment [1] and under 500 nM in experiment [2].

On to `C[C@@H](Oc1c(N)ncc2c(C3=CCN(C(=O)[C@H]4CCCNC4)CC3)coc12)c1c(Cl)ccc(F)c1Cl` [Example 240, (4-{6-Amino-7-[(R)-1-(2,6-dichloro-3-fluorophenyl)ethoxy]-furo[3,2-c]pyridin-3-yl}-3,6-dihydro-2H-pyridin-1-yl)-(S)-piperidin-3-ylmethanone], for which the IC50 in experiment [1] and in experiment [2] was under 500 nM each time.

For the molecule `CCNC(=O)N1CC=C(c2coc3c(O[C@H](C)c4c(Cl)ccc(F)c4Cl)c(N)ncc23)CC1` [Example 151, 4-{6-Amino-7-[(1R)-1-(2,6-dichloro-3-fluorophenyl)ethoxy]furo[3,2-c]pyridin-3-yl}-N-ethyl-3,6-dihydropyridine-1(2H)-carboxamide], the IC50 in experiment [1] was 500 to 5000 nM; in experiment [2], under 500 nM.

With `C[C@@H](Oc1c(N)ncc2c(C3=CCN(S(=O)(=O)c4ccccc4)CC3)coc12)c1c(Cl)ccc(F)c1Cl` [Example 49, 3-(1-Benzenesulfonyl-1,2,3,6-tetrahydropyridin-4-yl)-7-[(R)-1-(2,6-dichloro-3-fluorophenyl)-ethoxy]-furo[3,2-c]pyridin-6-ylamine], the IC50 in experiment [1] and in experiment [2] was 500 to 5000 nM in each case.

On to `CCS(=O)(=O)Nc1cccc(-c2coc3c(O[C@H](C)c4c(Cl)ccc(F)c4Cl)c(N)ncc23)c1` [Example 245, Ethanesulfonic acid (3-{6-amino-7-[(R)-1-(2,6-dichloro-3-fluorophenyl)ethoxy]-furo[3,2-c]pyridin-3-yl}phenyl)amide], for which the IC50 in experiment [1] and in experiment [2] was 500 to 5000 nM in each case.

Consider `C[C@@H](Oc1c(N)ncc2c(-c3ccc(CO)nc3)coc12)c1c(Cl)ccc(F)c1Cl` [Example 118, (5-{6-Amino-7-[(R)-1-(2,6-dichloro-3-fluorophenyl)ethoxy]furo[3,2-c]pyridin-3-yl}pyridin-2-yl)methanol], for which the IC50 in experiment [1] is 500 to 5000 nM; in experiment [2], under 500 nM.

For the molecule `CC(Oc1c(N)ncc2c(-c3cnn(C4CCNCC4)c3)coc12)c1cc(F)cc(Br)c1` (centres unmarked) [Example 434, 7-[1-(3-Bromo-5-fluorophenyl)ethoxy]-3-(1-piperidin-4-yl-1H-pyrazol-4-yl)furo[3,2-c]pyridin-6-ylamine], the IC50 in experiment [1] and in experiment [2] was under 500 nM in each case.

With `CN/C(=N/C#N)N1CC=C(c2coc3c(O[C@H](C)c4c(Cl)ccc(F)c4Cl)c(N)ncc23)CC1` [Example 198, 4-{6-Amino-7-[(R)-1-(2,6-dichloro-3-fluorophenyl)ethoxy]-furo[3,2-c]pyridin-3-yl}-N-cyano-N′-methyl-3,6-dihydro-2H-pyridine-1-carboxamidine], the IC50 in experiment [1] and in experiment [2] was 500 to 5000 nM in each case.

Consider `C[C@@H](Oc1c(N)ncc2c(-c3cncc(C(=O)N4CCOCC4)c3)coc12)c1c(Cl)ccc(F)c1Cl` [Example 282, (5-{6-Amino-7-[(R)-1-(2,6-dichloro-3-fluorophenyl)ethoxy]furo[3,2-c]pyridin-3-yl}pyridin-3-yl)morpholin-4-ylmethanone], for which the IC50 in experiment [1] is 5000 to 20000 nM; in experiment [2], 500 to 5000 nM.

Turning to `CC(Oc1c(N)ncc2c(-c3cnn(C4CCNCC4)c3)coc12)c1c(Cl)ccc2ccccc12` (centres unmarked) [Example 369, 7-[1-(2-Chloronaphthalen-1-yl)ethoxy]-3-(1-piperidin-4-yl-1H-pyrazol-4-yl)furo[3,2-c]pyridin-6-ylamine], the IC50 in experiment [1] and in experiment [2] was 500 to 5000 nM each time.

For the molecule `C[C@@H](Oc1c(N)ncc2ccoc12)c1nnc2ccc(-c3cnn(C)c3)nn12` [Example 470, 7-{(1R)-1-[6-(1-methyl-1H-pyrazol-4-yl) [1,2,4]triazolo[4,3-b]pyridazin-3-yl]ethoxy}furo[3,2-c]pyridin-6-amine], the IC50 in experiment [1] is over 20000 nM; in experiment [2], 500 to 5000 nM.
